This note sets out measurements from ChEMBL document CHEMBL1268812, “Piperidine-based renin inhibitors: upper chain optimization” (Bioorg Med Chem Lett, 2010).

Holding throughout (details): rat, po, 3 mg/kg
A short description of data set [1]: in vivo.
Description: Half life in transgenic rat harboring human angiotensinogen and human renin gene at 3 mg/kg, po
A short description of data set [2]: in vivo. The source holds these as a separate data set.
Description: Clearance in transgenic rat harboring human angiotensinogen and human renin gene at 3 mg/kg, po
A short description of data set [3]: in vivo. This is another data set of the same source.

As a reminder, the half-life is the time in which the quantity being followed falls by half. By CL/F is commonly meant clearance divided by bioavailability, as obtained after extravascular dosing. One may read the bioavailability as dose-corrected exposure relative to a reference, in per cent. A lower bioavailability goes with little systemic uptake. Consider `COCCCc1ccc(Cl)c(CN(C(=O)[C@H]2CNCC[C@@H]2c2ccc(OCCOc3c(Cl)cc(C)cc3Cl)nc2)C2CC2)c1`, for which, in the data set “in vivo [1]”, the half-life is 3.6 h. This compound gave a CL/F in “in vivo [2]” of 29 mL/min/kg. Besides, in the data set “in vivo [3]”, the bioavailability stood at 28%.

As to `COCCc1ccc(Cl)c(CN(C(=O)[C@H]2CNCC[C@@H]2c2ccc(OCCOc3c(Cl)cc(C)cc3Cl)nc2)C2CC2)c1`, the half-life in the data set “in vivo [1]” was 5.8 h. This compound registered a CL/F in “in vivo [2]” of 21 mL/min/kg. The bioavailability in the data set “in vivo [3]” stood at 35%.

Compound `COCCc1ccc(Cl)c(CN(C(=O)[C@H]2CNCC[C@@H]2c2ccc(N3CC[C@@H](Oc4c(Cl)cc(C)cc4Cl)C3)nc2)C2CC2)c1` had a half-life in the data set “in vivo [1]” of 5.6 h. This compound also showed a CL/F in “in vivo [2]” of 35 mL/min/kg. The same compound yielded a bioavailability in the data set “in vivo [3]” of 8%.
